Experimental data from paper PMC10709440, “High-throughput ligand profile characterization in novel cell lines expressing seven heterologous insect olfactory receptors for the detection of volatile plant biomarkers” (Scientific Reports, 2023).
Like-named read-outs stand apart in the source and are kept apart here.

Experiments:
Drosophila OR71a = molecular target: T1, Drosophila OR71a (Drosophila melanogaster, UniProt Q9VUK5); assay: Calcium ion fluorescence (GCaMP6) assay, OR71a stable HEK293 cell line; type: cell-based; conditions: for OR71a Average response (VUAA1-normalized): 50 μM VUAA1 = 1; for OR71a response (VUAA1-normalized) at 1 μM / OR71a response (VUAA1-normalized) at 10 μM / OR71a response (VUAA1-normalized) at 100 μM / Average response: OR71a cell line; for OR71a response (VUAA1-normalized) at 1 μM: VOC concentration 1 μM; for OR71a response (VUAA1-normalized) at 10 μM: VOC concentration 10 μM; for OR71a response (VUAA1-normalized) at 100 μM: VOC concentration 100 μM; for Average response: VUAA1-normalized response, mean of biological replicates; for DF norm AVERAGE OR71a: threshold 0.05, below shown as 0; for activation at 1 µM / activation at 10 µM / activation at 100 µM: HEK293, read-out: OR71a response (VUAA1-normalized response)
T1 construct: expressed in transfected cells
T1 sequence (Q9VUK5 1-378): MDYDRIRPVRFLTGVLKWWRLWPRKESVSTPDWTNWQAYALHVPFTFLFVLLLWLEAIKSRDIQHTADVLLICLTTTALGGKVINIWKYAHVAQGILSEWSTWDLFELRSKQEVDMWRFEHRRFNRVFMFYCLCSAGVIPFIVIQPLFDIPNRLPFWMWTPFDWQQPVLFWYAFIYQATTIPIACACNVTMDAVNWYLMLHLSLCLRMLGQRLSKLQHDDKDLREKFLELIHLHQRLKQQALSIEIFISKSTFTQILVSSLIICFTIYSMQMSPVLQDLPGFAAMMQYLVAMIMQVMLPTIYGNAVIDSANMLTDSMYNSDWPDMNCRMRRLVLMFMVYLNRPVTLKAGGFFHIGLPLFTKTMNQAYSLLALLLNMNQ
T1 sequence (Q9VNB5 1-486 partner): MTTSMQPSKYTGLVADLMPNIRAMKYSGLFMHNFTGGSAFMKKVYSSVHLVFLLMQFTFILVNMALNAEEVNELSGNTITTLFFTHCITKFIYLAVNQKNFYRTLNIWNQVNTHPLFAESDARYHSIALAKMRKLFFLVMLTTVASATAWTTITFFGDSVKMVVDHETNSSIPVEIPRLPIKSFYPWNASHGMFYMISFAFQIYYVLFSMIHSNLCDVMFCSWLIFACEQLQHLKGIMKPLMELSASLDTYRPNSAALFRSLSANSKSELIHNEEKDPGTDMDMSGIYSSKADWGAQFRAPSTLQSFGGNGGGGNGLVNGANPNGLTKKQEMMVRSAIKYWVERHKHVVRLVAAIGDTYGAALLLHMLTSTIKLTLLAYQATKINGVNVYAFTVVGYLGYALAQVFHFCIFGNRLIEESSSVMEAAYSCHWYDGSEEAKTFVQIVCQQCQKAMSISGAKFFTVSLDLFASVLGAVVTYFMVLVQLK
Experimental: These VUAA1 normalized ∆F values were used to compare the different receptors and ligands.
The concentration-dependent effect of the reference ligands on their cognate cell lines was examined in more detail. Twelve different ligand concentrations were measured on each cell line in an overall 0.01 μM to 100 μM concentration range with 5 repetitions with three technical replicates each time.
Twelve thousand to 18,000 cells were plated into each well of a black wall, transparent bottom 384-well microplate (Greiner) 48 h or 72 h before the measurements and were simultaneously treated with 1 μg/mL doxycycline. […] The plate has 24 columns, thus we could record responses in up to eight different cell lines in each plate. On the day of the experiment, the growth medium was replaced with 20 µL assay buffer/well (140 mM NaCl, 5 mM KCl, 2 mM CaCl2, 1 mM MgCl2, 5 mM HEPES-Na, 20 mM glucose, pH 7.3, 340 mOsm). […] Baseline fluorescence (F0) was recorded for 5 s, after which 7 µL VOC buffer (140 mM NaCl, 5 mM KCl, 2 mM CaCl2, 1 mM MgCl2, 5 mM HEPES-Na, 31 mM glucose, 0.1% DMSO, pH 7.3, 340 mOsm) was injected into each well in one row and the fluorescence response was recorded for an additional 30 s, at a rate of one read/sec. VOC solutions (VOC buffer with 4× concentration of the final measured VOC concentration, 9 µL/well was injected) were measured on the same wells in a second round with the same protocol. Each individual concentration of a specific VOC sample was recorded in three wells for the same cell line on the same microplate. The raw data were exported in xls file format, F0 and FMAX values, and the fluorescence intensity changes (∆F) were calculated in Excel (Microsoft) (Supplementary file Data summary.xlsx) using the following equation: ΔF=FMAX-F0/F0 (see also Fig. 1C). On each plate, we recorded the response of each cell line to 50 µM VUAA1. The average of these ∆F values of each cell line were used to calculate the VUAA1-normalized values for the rest of the plate, by dividing VOC response ∆F values by the average VUAA1 response ∆F value of the corresponding OR cell line. Each VOC-OR combination was measured three times as technical replicates. […] The average of these replicates were used as one ∆F and VUAA1-normalized ∆F in the following analysis.
In the next rows we tested the reference VOCs (or other VOCs known to activate the corresponding cell lines), in order to test if all cell lines are responsive. The remaining rows were used to test VOCs with unknown effect.
The recorded FMAX, F0, ∆F, VUAA1-normalized ∆F values, as well as the OR name, the name of the tested sample, and the final concentration for each well were copied into supplementary file Data summary.xlsx, that was used to summarize all the plates recorded. Here, the averages of the measurements were calculated for each receptor-VOC-concentration combination.

Drosophila OR49b = molecular target: T2, Drosophila OR49b (Drosophila melanogaster, UniProt Q9V6H2); assay: cell-based; conditions: for activation at 1 µM / activation at 10 µM / activation at 100 µM: HEK293; for OR49b response (VUAA1-normalized) at 1 μM / OR49b response (VUAA1-normalized) at 10 μM / OR49b response (VUAA1-normalized) at 100 μM / Average response: OR49b cell line; for Average response: mean of biological replicates; for DF norm AVERAGE OR49b: threshold 0.05, below shown as 0
T2 construct: expressed in transfected cells
T2 sequence (Q9V6H2 1-375): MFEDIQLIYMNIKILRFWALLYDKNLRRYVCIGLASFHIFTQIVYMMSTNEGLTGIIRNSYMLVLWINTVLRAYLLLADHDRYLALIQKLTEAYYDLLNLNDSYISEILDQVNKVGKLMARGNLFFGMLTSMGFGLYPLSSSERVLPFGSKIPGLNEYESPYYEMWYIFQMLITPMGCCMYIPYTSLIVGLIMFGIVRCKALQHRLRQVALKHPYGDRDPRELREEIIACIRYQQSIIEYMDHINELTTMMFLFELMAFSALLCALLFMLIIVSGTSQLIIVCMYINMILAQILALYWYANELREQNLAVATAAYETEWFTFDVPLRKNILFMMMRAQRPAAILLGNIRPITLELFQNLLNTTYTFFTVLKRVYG
T2 sequence (Q9VNB5 1-486 partner): T1 sequence (Q9VNB5 1-486 partner)
In short: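 Responses are VUAA1-normalized ΔF: each VOC-evoked calcium signal, (FMAX−F0)/F0 over 30 s after injection, divided by the same line's mean 50 µM VUAA1 response. Cells were doxycycline-induced HEK293 with GCaMP6 and the cognate Drosophila OR, in HEPES buffer pH 7.3; ligands tested 0.01–100 μM.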

[1] = ligand concentration 1 (unit not given)
[2] = ligand concentration 10 (unit not given)
[3] = ligand concentration 100 (unit not given)
[4] = VOC concentration 1 μM, read-out: OR49b response (VUAA1-normalized response)
[5] = VOC concentration 10 μM, read-out: OR49b response (VUAA1-normalized response)
[6] = VOC concentration 100 μM, read-out: OR49b response (VUAA1-normalized response)

Row | SMILES | OR71a response (VUAA1-normalized) at 1 μM (Drosophila OR71a) | OR71a response (VUAA1-normalized) at 10 μM (Drosophila OR71a) | OR71a response (VUAA1-normalized) at 100 μM (Drosophila OR71a) | Average response (Drosophila OR71a; cc. 1 µM) | Average response (Drosophila OR71a; cc. 10 µM) | Average response (Drosophila OR71a; cc. 100 µM) | DF norm AVERAGE OR71a (Drosophila OR71a; [1]) | DF norm AVERAGE OR71a (Drosophila OR71a; [2]) | DF norm AVERAGE OR71a (Drosophila OR71a; [3]) | OR49b response (VUAA1-normalized) at 1 μM (Drosophila OR49b; VOC concentration 1 μM) | OR49b response (VUAA1-normalized) at 10 μM (Drosophila OR49b; VOC concentration 10 μM) | OR49b response (VUAA1-normalized) at 100 μM (Drosophila OR49b; VOC concentration 100 μM) | Average response (Drosophila OR49b; odorant cc. 1 µM) | Average response (Drosophila OR49b; odorant cc. 10 µM) | Average response (Drosophila OR49b; odorant cc. 100 µM) | DF norm AVERAGE OR49b (Drosophila OR49b; [1]) | DF norm AVERAGE OR49b (Drosophila OR49b; [2]) | DF norm AVERAGE OR49b (Drosophila OR49b; [3]) | activation at 1 µM (Drosophila OR71a) | activation at 10 µM (Drosophila OR71a) | other results
1 | COC(=O)c1ccccc1O [methyl salicylate] | 0.00 | 0.00 | 0.12 | 0.00 | 0.0108 | 0.12 | 0 | 0 | 0.1155 | 0.00 | 0.00 | 0.12 | 0.0269 | 0.00333 | 0.12 | 0 | 0 | 0.1238 | – | – | OR71a Average response (VUAA1-normalized) (Drosophila OR71a; 1 μM VOC): 0.00; OR71a Average response (VUAA1-normalized) (Drosophila OR71a; 10 μM VOC): 0.01; OR71a Average response (VUAA1-normalized) (Drosophila OR71a; 100 μM VOC): 0.12; activation at 1 µM (Drosophila OR49b; 1 μM VOC, 50 μM VUAA1 = 1, read-out: OR49b Average response (VUAA1-normalized)): 3%; activation at 10 µM (Drosophila OR49b; 10 μM VOC, 50 μM VUAA1 = 1, read-out: OR49b Average response (VUAA1-normalized)): 0%; activation at 100 µM (Drosophila OR49b; 100 μM VOC, 50 μM VUAA1 = 1, read-out: OR49b Average response (VUAA1-normalized)): 12%
2 | C=C1CCC2CC1C2(C)C (stereo not drawn) [beta-pinene] | – | – | – | 0.0344 | 0.0361 | 0.00 | 0 | 0 | 0 | – | – | – | 0.0658 | 0.05 | 0.00 | 0.06581 | 0.05055 | 0 | 0% | 0% | activation at 100 µM (Drosophila OR71a): 0%; activation at 1 µM (Drosophila OR49b; [4]): 6.58%; activation at 10 µM (Drosophila OR49b; [5]): 5%; activation at 100 µM (Drosophila OR49b; [6]): 0%
3 | C=C1CCC2(C(C)C)CC12 (stereo not drawn) [sabinene] | 0.00 | 0.00 | 0.00 | 0.00 | 0.00 | 0.0235 | 0 | 0 | 0 | 0.00 | 0.00 | 0.00 | 0.00 | 0.00 | 0.0368 | 0 | 0 | 0 | – | – | –
4 | CCCCOC(=O)CC [butyl propanoate] | – | – | – | 0.00 | 0.00 | 0.03 | 0 | 0 | 0 | – | – | – | 0.00 | 0.00 | 0.00 | 0 | 0 | 0 | 0% | 0% | activation at 100 µM (Drosophila OR71a): 0%; activation at 1 µM (Drosophila OR49b; [4]): 0%; activation at 10 µM (Drosophila OR49b; [5]): 0%; activation at 100 µM (Drosophila OR49b; [6]): 0%
